Experimental data: patent US8927544B2, “Benzofuran-2-sulfonamides derivatives as chemokine receptor modulators” (Allergan, Inc., priority 2012, dated 2015)
Where two headings read alike, the source gives them in different places.

Target: T1, CCR2 (Homo sapiens, UniProt P41597)
T1 construct: expressed in transfected cells
Experiment: compound-induced calcium activity on the FLIPR Tetra in HEK-Gqi5 cells stably expressing CCR2
Format: cell-based
Method: HEK-Gqi5 cells stably expressing CCR2 were cultured in DMEM high glucose, 10% FBS, 1% PSA, 400 μg/ml geneticin and 50 μg/ml hygromycin. Appropriate positive control chemokines (MCP-1, MIP1A or RANTES) was used as the positive control agonist for screening compound-induced calcium activity assayed on the FLIPR^Tetra. The drug plates were prepared in 384-well microplates using the EP3 and the MultiPROBE robotic liquid handling systems. Compounds were synthesized and tested for CCR2 activity.

[1] = HEK-Gqi5 cells stably expressing CCR2, calcium activity, FLIPR Tetra
[2] = HEK-Gqi5 cells stably expressing CCR2, calcium activity, FLIPR Tetra, read-out: CCR2 IC50

T1 sequence (P41597 whole entry, species assumed): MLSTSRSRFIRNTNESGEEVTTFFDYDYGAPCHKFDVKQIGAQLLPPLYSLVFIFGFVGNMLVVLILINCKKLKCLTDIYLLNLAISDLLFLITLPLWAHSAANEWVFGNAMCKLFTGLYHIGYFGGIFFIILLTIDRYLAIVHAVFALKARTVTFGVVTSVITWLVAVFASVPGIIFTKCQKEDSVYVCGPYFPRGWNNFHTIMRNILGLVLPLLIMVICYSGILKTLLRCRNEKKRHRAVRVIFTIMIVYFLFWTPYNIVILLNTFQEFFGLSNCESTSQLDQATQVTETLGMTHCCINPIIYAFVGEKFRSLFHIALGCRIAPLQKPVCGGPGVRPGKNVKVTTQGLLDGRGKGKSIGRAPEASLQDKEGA

Structure (SMILES) | CCR2 ANTAGONISM (%) [1] [%] | IC50 [2] [nM] | IC50 [nM]
O=S(=O)(Nc1cc(Cl)ccc1CCc1ccccc1)c1cc2ccccc2o1 [Compound 22, N-[5-Chloro-2-(2-phenylethyl)phenyl]-1-benzofuran-2-sulfonamide] | 84 |  | 
C#Cc1ccc(Cl)cc1NS(=O)(=O)c1cc2ccccc2o1 [Compound 6, N-(5-Chloro-2-ethynylphenyl)-1-benzofuran-2-sulfonamide] | 93 | 117 | 
O=C(O)c1ccccc1COc1ccc(Cl)cc1NS(=O)(=O)c1cc2ccccc2o1 [Compound 31, 2-({2-[(1-Benzofuran-2-ylsulfonyl)amino]-4-chlorophenoxy}methyl)benzoic Acid] | 99 | 27 | 
N#Cc1ccc(Cl)cc1NS(=O)(=O)c1cc2ccccc2o1 [Compound 16, N-(5-Chloro-2-cyanophenyl)-1-benzofuran-2-sulfonamide] | 102 | 409 | 
Cc1ccc(Cl)cc1NS(=O)(=O)c1cc2ccccc2o1 [Compound 2, N-(5-Chloro-2-methylphenyl)-1-benzofuran-2-sulfonamide] | 84 | 359 | 
O=C(O)c1ccccc1Oc1ccc(Cl)cc1NS(=O)(=O)c1cc2ccccc2o1 [Compound 11, 2-{2-[(1-Benzofuran-2-ylsulfonyl)amino]-4-chlorophenoxy}benzoic acid] | 97 | 60 | 
O=S(=O)(Nc1cc(F)ccc1Sc1ccccc1)c1cc2ccccc2o1 [Compound 27, N-[5-Fluoro-2-(phenylsulfanyl)phenyl]-1-benzofuran-2-sulfonamide] | 74 |  | 
O=S(=O)(Nc1cc(Cl)ccc1S(=O)(=O)c1ccccc1)c1cc2ccccc2o1 [Compound 13, N-[5-Chloro-2-(phenylsulfonyl)phenyl]-1-benzofuran-2-sulfonamide] | 78 | 1970 | 
CO/N=C(/Cc1ccccc1)c1ccc(Cl)cc1NS(=O)(=O)c1cc2ccccc2o1 [Compound 18, N-{5-Chloro-2-[(1Z)—N-methoxy-2-phenylethanimidoyl]phenyl}-1-benzofuran-2-sulfonamide] | 76 |  | 
O=C(Nc1ccccc1)c1ccc(Cl)cc1NS(=O)(=O)c1cc2ccccc2o1 [Compound 15, 2-[(1-Benzofuran-2-ylsulfonyl)amino]-4-chloro-N-phenylbenzamide] | 95 | 328 | 
Cc1ccc([S+]([O-])c2ccccc2)c(NS(=O)(=O)c2cc3ccccc3o2)c1 (stereo not drawn) [Compound 25, N-[5-Methyl-2-(phenylsulfinyl)phenyl]-1-benzofuran-2-sulfonamide] | 92 | 2880 | 
O=S(=O)(Nc1cc(Cl)ccc1[S+]([O-])c1ccccc1)c1cc2ccccc2o1 (stereo not drawn) [Compound 14, N-[5-Chloro-2-(phenylsulfinyl)phenyl]-1-benzofuran-2-sulfonamide] | 105 | 6 | 
O=C(c1ccc(Cl)cc1NS(=O)(=O)c1cc2ccccc2o1)N1CCOCC1 [Compound 8, N-[5-Chloro-2-(morpholin-4-ylcarbonyl)phenyl]-1-benzofuran-2-sulfonamide] | 84 | 569 | 
Cc1ccc(S(=O)(=O)c2ccccc2)c(NS(=O)(=O)c2cc3ccccc3o2)c1 [Compound 26, N-[5-Methyl-2-(phenylsulfonyl)phenyl]-1-benzofuran-2-sulfonamide] | 38 |  | 
CCOc1ccc(Cl)cc1NS(=O)(=O)c1cc2ccccc2o1 [Compound 5, N-(5-Chloro-2-ethoxyphenyl)-1-benzofuran-2-sulfonamide] | 73 | 1660 | 
O=S(=O)(Nc1cc(Cl)ccc1OCc1ccccc1)c1cc2ccccc2o1 [Compound 20, N-[2-(Benzyloxy)-5-chlorophenyl]-1-benzofuran-2-sulfonamide] | 87 | 1630 | 
O=S(=O)(Nc1cc(Cl)ccc1C#Cc1ccccc1)c1cc2ccccc2o1 [Compound 21, N-[5-Chloro-2-(phenylethynyl)phenyl]-1-benzofuran-2-sulfonamide] | 30 |  | 
COc1ccc(Cl)cc1NS(=O)(=O)c1cc2ccccc2o1 [Compound 1, N-(5-Chloro-2-methoxyphenyl)benzofuran-2-sulfonamide] | 97 | 512 | 
O=S(=O)(Nc1cc(Cl)ccc1/C(Cc1ccccc1)=N\O)c1cc2ccccc2o1 [Compound 19, N-{5-Chloro-2-[(1Z)—N-hydroxy-2-phenylethanimidoyl]phenyl}-1-benzofuran-2-sulfonamide] | 72 |  | 
Cc1ncccc1Oc1ccc(Cl)cc1NS(=O)(=O)c1cc2ccccc2o1 [Compound 9, N-{5-Chloro-2-[(2-methylpyridin-3-yl)oxy]phenyl}-1-benzofuran-2-sulfonamide] | 96 | 365 | 
O=S(=O)(Nc1cc(F)ccc1[S+]([O-])c1ccccc1)c1cc2ccccc2o1 (stereo not drawn) [Compound 28, N-[5-Fluoro-2-(phenylsulfinyl)phenyl]-1-benzofuran-2-sulfonamide] | 91 | 317 | 
COC(=O)c1ccc(Cl)cc1NS(=O)(=O)c1cc2ccccc2o1 [Compound 4, Methyl 2-[(1-benzofuran-2-ylsulfonyl)amino]-4-chlorobenzoate] | 95 | 1380 | 
O=S(=O)(Nc1cc(F)ccc1S(=O)(=O)c1ccccc1)c1cc2ccccc2o1 [Compound 29, N-[5-Fluoro-2-(phenylsulfonyl)phenyl]-1-benzofuran-2-sulfonamide] | 82 | 2620 | 
O=C(Cc1ccccc1)c1ccc(Cl)cc1NS(=O)(=O)c1cc2ccccc2o1 [Compound 17, N-[5-Chloro-2-(phenylacetyl)phenyl]-1-benzofuran-2-sulfonamide] | 79 | 183 | 
O=C1CCN(C(=O)c2ccc(Cl)cc2NS(=O)(=O)c2cc3ccccc3o2)CC1 [Compound 7, N-{5-Chloro-2-[(4-oxopiperidin-1-yl)carbonyl]phenyl}-1-benzofuran-2-sulfonamide] | 93 |  | 110
COC(=O)c1ccccc1Oc1ccc(Cl)cc1NS(=O)(=O)c1cc2ccccc2o1 [Compound 10, Methyl 2-{2-[(1-benzofuran-2-ylsulfonyl)amino]-4-chlorophenoxy}benzoate] | 98 | 1020 | 
O=S(=O)(Nc1cc(Cl)ccc1Sc1ccccc1)c1cc2ccccc2o1 [Compound 12, N-[5-Chloro-2-(phenylsulfanyl)phenyl]-1-benzofuran-2-sulfonamide] | 90 | 124 | 
O=S(=O)(Nc1cc(Cl)ccc1OC(F)(F)F)c1cc2ccccc2o1 [Compound 3, N-[5-Chloro-2-(trifluoromethoxy)phenyl]-1-benzofuran-2-sulfonamide] | 95 | 195 | 
Cc1ccc(Sc2ccccc2)c(NS(=O)(=O)c2cc3ccccc3o2)c1 [Compound 24, N-[5-Methyl-2-(phenylsulfanyl)phenyl]-1-benzofuran-2-sulfonamide] | 41 |  | 
